Data taken from patent US20160120858A1 (ACADEMIA SINICA, priority 2014, published 2016).
“Also recorded” adds a separate entry of the source.

Columns and labels:
[1] = test system: NMDAR; assay: NMDA-fEPSP extracellular recordings, hippocampal slices; format: cell-based, mouse; details: for Effect on clioquinol-dependent increase in NMDAR activity (NMDA-fEPSPs): applied to hippocampal slices before clioquinol treatment
Description: (§1) For electrophysiological experiments, sagittal hippocampal slices (400 uM thick for extracellular, 300 uM thick for intracellular recordings) of Shank2^−/− mice (or ZnT3^−/− mice) and their wild-type littermates were prepared using a vibratome (Leica VT1200) in ice-cold dissection buffer containing (in mM) 212 sucrose, 25 NaHCO3, 5 KCl, 1.25 NaH2PO4, 0.5 CaCl2, 3.5 MgSO4, 10 D-glucose, 1.25 L-ascorbic acid, and 2 Na-pyruvate bubbled with 95% 02/5% CO2. CA3 was removed to prevent epileptiform activity. Slices were restored for 1 hour in 32° C. in a normal artificial CSF (ACSF) (In units of mM: 124 NaCl, 2.5 kCl, 1 NaH2PO4, 25 NaHCO3, 10 glucose, 2 CaC12, 2 Mg504 oxidized by 95% 02/5% CO2) For the recording, a single slice was moved to and maintained in submerged-type chamber at 28° C., continuously perfused with ACSF (2 mL/minute) saturated with 95% 02/5% CO2. Stimulation and recording pipettes were pulled from borosilicate glass capillaries (Harvard Apparatus) using a micropipette electrode puller (Narishege).
For extracellular recordings, mouse hippocampal slices at the age of postnatal day 21 to 35 were used. Field excitatory postsynaptic potentials (fEPSPs) were recorded in the stratum radiatum of the hippocampal CA1 region using pipettes filled with ACSF (1 MΩ). fEPSP was amplified (Multiclamp 700B, Molecular Devices), and digitized (Digidata 1440A, Molecular
Devices) for measurements. The Schaffer collateral pathway was stimulated every 20 seconds with pipettes filled with ACSF (0.3 to 0.5 MΩ). The stimulation intensity was adjusted to yield a half-maximal response, and three successive responses were averaged and expressed relative to the normalized baseline. To induce LTP, high frequency stimulation (100 Hz, 1 s) was applied after a stable baseline was acquired. […] To isolate NMDAR-mediated fEPSPs, ACSF containing 2 mM calcium, 0.1 mM magnesium, and 6,7-dinitroquinoxaline-2,3-dione (10 uM, DNQX, Tocris), which inhibits AMPAR-mediated EPSPs, were used.

[2] = test system: NMDAR; assay: Simultaneous NMDA- and AMPA-eEPSCs at −40 mV, patch-clamp, hippocampal slices; format: cell-based, mouse; details: for Effect on clioquinol-dependent increase in NMDA/AMPA ratio at −40 mV: WT and KO
Description: as §1
Whole-cell patch-clamp recordings of hippocampal CA1 pyramidal neurons were also made using a MultiClamp 700B amplifier (Molecular Devices) and Digidata 1440A (Molecular Devices). During whole-cell patch-clamp recordings, series resistance was monitored each sweep by measuring the peak amplitude of the capacitance currents in response to short hyperpolarizing step pulse (5 mV, 40 ms); only cells with a change in <25% were included in the analysis. For NMDA (N-Methyl-D-aspartate)/AMPA (alpha-amino-3-hydroxy-5-methylisoxazole-4-propionic acid) ratio experiments, mouse hippocampal slices at the age of postnatal day 17 to 25 were used. The recording pipettes (2.5 to 3.5 MΩ) were filled with an internal solution containing the following (in mM): 100 CsMeSO4, 10 TEA-Cl, 8 NaCl, 10 HEPES, 5 QX-314-C1, 2 Mg-ATP, 0.3 Na-GTP, 10 EGTA, with pH 7.25, 295 mOsm). CA1 pyramidal neurons were voltage-clamped at −70 mV, and EPSPs were evoked at every 15 sec. AMPAR-mediatedEPSCs were recorded at −70 mV, and 30 consecutive responses were recorded after stable baseline. After recording AMPAR-mediated EPSPs, holding potential was changed to +40 mV to record NMDA receptor-mediated EPSPs. NMDA component was measured at 60 ms after the stimulation. The NMDA/AMPA ratio was determined by dividing the mean value of 30 NMDA components of EPSPs by the mean value of 30 AMPAR-mediated EPSC peak amplitudes. […] For measuring AMPAR-mediated and NMDAR-mediated EPSCs together upon CQ treatment, pyramidal neurons were voltage-clamped at −40 mV, and EPSCs were evoked at every 15 sec. AMPAR-mediated EPSC was determined as a peak amplitude of EPSC, and NMDAR-mediated EPSC as a component at 60 ms after stimulation. NMDA/AMPA ratio at −40 mV was calculated by using both values, and monitored during the experimental process. […] Picrotoxin (100 uM) was always added to ACSF to block GABAA receptor-mediated currents.

[3] = test system: Tbr1^+/− mice; details: reported by Huang et al. 2014; cited from earlier work

With `CN(C)S(=O)(=O)c1ccc2c(c1)/C(=C/c1cc3c([nH]1)CCCC3)C(=O)N2` [SU6656] the “Effect on clioquinol-dependent increase in NMDAR activity (NMDA-fEPSPs)” value [1] was “removed clioquinol activation of NMDAR”.
For `O=C(NN=C1CCCCC1)C(=O)NN=C1CCCCC1` [cuprizone], the “Effect on clioquinol-dependent increase in NMDAR activity (NMDA-fEPSPs)” value [1] was “did not inhibit the clioquinol-induced increase in NMDAR activity”.
For `CC(C)(C)n1nc(-c2ccc(Cl)cc2)c2c(N)ncnc21` [PP2], the “Effect on clioquinol-dependent increase in NMDAR activity (NMDA-fEPSPs)” value [1] was “removed clioquinol activation of NMDAR”.
With `NC(CCCP(=O)(O)O)C(=O)O` (stereo not drawn) [AP5] the “NMDA-eEPSCs at −40 mV” value ([2]; D-AP5 50 uM, 10 minutes, after CQ) was “significantly reduced”.
For `O=C([O-])CN(CCN(CC(=O)[O-])CC(=O)[O-])CC(=O)[O-].[Ca+2].[Na+].[Na+]` [Ca-EDTA], the “NMDAR function (NMDA-fEPSPs), substance alone” value ([1]; Ca-EDTA 2 mM, during and after the treatment, WT and KO) was “did not affect NMDA-fEPSP; also recorded: has no effect on NMDAR function” and the “Effect on clioquinol-dependent increase in NMDAR activity (NMDA-fEPSPs)” value [1] was “eliminated the clioquinol-dependent increase in NMDAR activity”.
For `N[C@@H]1CONC1=O` [D-cycloserine], the “Reduction in social interaction” value [3] is listed as “normalized”.
In the case of `Nc1ncnc2c1cnn2-c1ccccc1` [PP3], the “Effect on clioquinol-dependent increase in NMDAR activity (NMDA-fEPSPs)” value [1] is reported as “failed to block the NMDAR activation”.
For “Src (40-58): Src-inhibitory peptide with a sequence corresponding to Src amino acid residues 40-58 (KPASADGHRGPSAAFAPAA; UniProt P12931 40-58, looked up, fragment)”, the “Effect on clioquinol-dependent increase in NMDAR activity (NMDA-eEPSCs)” value ([2]; peptide in the patch pipette, 0.03 mg/mL, Shank2^−/− and wild-type synapses) was “prevented clioquinol from increasing NMDAR activity”, the “Effect on clioquinol-dependent increase in NMDA/AMPA ratio at −40 mV” value ([2]; peptide in the patch pipette, 0.03 mg/mL) was “blocks CQ-dependent NMDAR activation” and the “Effect on clioquinol-dependent increase in NMDA/AMPA ratio at −40 mV” value ([2]; peptide in the patch pipette, 0.03 mg/mL, listed as Src-inhibitory peptide) was “blocked”. For the same compound, the “AMPAR function (AMPA-eEPSCs)” value ([2]; peptide in the patch pipette, wild-type and Shank2^−/− synapses) was “unaffected”.
